Experimental data as given in patent US10364263B2, “Cyclic phosphates and cyclic phosphoramidates for the treatment of neurologic disorders” (Retrophin, Inc., priority 2015, dated 2019).

System: PANK2 silenced human neuroblastoma IMR32 cells (PANK2−/−)
Assay: Coenzyme A assay in PANK2 silenced cells (LC-MS quantification of free CoA)
Assay type: cell-based
Details: compound added twice (24 h + 24 h), relative to 0.1% DMSO controls
In short: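 PANK2 shRNA-silenced IMR32 neuroblastoma cells were treated with compound (0.1% DMSO) for 24 h, then re-dosed with fresh compound for a further 24 h at 37 °C. TFA extracts of 1×10^6 cells were assayed for free CoA by LC-MS/MS (MRM 768.1→261.6/136.1). Results are given as fold change versus DMSO controls.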

Row | Compound | PANK2−/− CoA (Fold Increase): fold increase in Coenzyme A (CoA) levels relative to controls [Fold Increase]
1 | COC(=O)CCNC(=O)[C@@H]1O[P@@](=O)(OCOC(=O)c2ccnn2C)OCC1(C)C [2-184, (((2S,4R)-4-((3-methoxy-3-oxopropyl)carbamoyl)-5,5-dimethyl-2-oxido-1,3,2-dioxaphosphinan-2-yl)oxy)methyl 1-methyl-1H-pyrazole-5-carboxylate] | 21.67
2 | COC(=O)CCNC(=O)[C@@H]1OP(=O)(OCOC(=O)NC(C)(C)COC(C)=O)OCC1(C)C (stereo partly drawn) [2-152, methyl 3-((4R)-2-((((l-acetoxy-2-methylpropan-2-yl)carbamoyl)oxy)methoxy)-5,5-dimethyl-2-oxido-1,3,2-dioxaphosphinane-4-carboxamido)propanoate] | 1.24
3 | COC(=O)CCNC(=O)[C@@H]1OP(=O)(OCOC(=O)c2scnc2C(C)(C)C)OCC1(C)C (stereo partly drawn) [2-173, (((4R)-4-((3-methoxy-3-oxopropyl)carbamoyl)-5,5-dimethyl-2-oxido-1,3,2-dioxaphosphinan-2-yl)oxy)methyl 4-(tert-butyl)thiazole-5-carboxylate] | 2.57
4 | CC(C)(C)OC(=O)CCNC(=O)[C@@H]1O[P@](=O)(OCc2ccccc2)OCC1(C)C [Compound No. 63, tert-butyl 3-((4R)-2-(benzyloxy)-5,5-dimethyl-2-oxido-1,3,2-dioxaphosphinane-4-carboxamido)propanoate] | 2.24
5 | COC(=O)CCNC(=O)[C@@H]1O[P@@](=O)(OCOC(=O)c2cc(C(C)(C)C)nn2C)OCC1(C)C [2-169, (((2S,4R)-4-((3-methoxy-3-oxopropyl)carbamoyl)-5,5-dimethyl-2-oxido-1,3,2-dioxaphosphinan-2-yl)oxy)methyl 3-(tert-butyl)-1-methyl-1H-pyrazole-5-carboxylate] | 20.26
6 | COC(=O)CCNC(=O)[C@@H]1O[P@@](=O)(Oc2ccc(C[C@H](N)C(=O)OC)cc2)OCC1(C)C (single isomer, unassigned) [2-162] | 9.73
7 | COC(=O)CCNC(=O)[C@@H]1O[P@@](=O)(OCOC(=O)C2(C(N)=O)CC2)OCC1(C)C [2-131, (((2S,4R)-4-((3-methoxy-3-oxopropyl)carbamoyl)-5,5-dimethy)-2-oxido-1,3,2-dioxaphosphinan-2-yl)oxy)methyl 1-carbamoylcyclopropane-1-carboxylate] | 1.44
8 | COC(=O)CCNC(=O)[C@@H]1OP(=O)(OCOC(=O)NCCOC(=O)[C@@H](NC(=O)OCc2ccccc2)C(C)C)OCC1(C)C (stereo partly drawn) [2-181, 2-((((((4R)-4-((3-methoxy-3-oxopropyl)carbamoyl)-5,5-dimethyl-2-oxido-1,3,2-dioxaphosphuian-2-yl)oxy)methoxy)carbonyl)amino) ethyl((benzyloxy)carbonyl)-L-valinate] | 49.59
9 | CC(C)(C)C(=O)OCO[P@@]1(=O)OCC(C)(C)[C@H](C(=O)NCCC(=O)OCCC#N)O1 (single isomer, unassigned) [Compound No. 77] | 93.86
10 | COC(=O)CCNC(=O)[C@@H]1OP(=O)(OCOC(=O)NC(C)(C)COC(=O)C(C)(C)C)OCC1(C)C (stereo partly drawn) [2-167, 2-((((((4R)-4-((3-methoxy-3-oxopropyl)carbamoyl)-5,5-dimethyl-2-oxido-1,3,2-dioxaphosphinan-2-yl)oxy)methoxy)carbonyl)amino)-2-methylpropyl pivalate] | 3.26
11 | CCOC(=O)CCNC(=O)[C@@H]1OP(=O)(OCOC(=O)C(C)(C)C)OCC1(C)C (single isomer, unassigned) [Compound No. 107] | 85.06
